Target: T1, BCL6::BCOR (Homo sapiens, UniProt P41182, C67R/C84N/C8Q)
T1 construct: BCL6 (amino acids 5 to 129, with the following changes to the natural protein); made in house; host or cells: E. coli
Assay: BCL6::BCOR ULight TR-FRET assay
Format: binding
Procedure, shortened: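 Biotin-Avi BCL6 (aa 5–129, C8Q/C67R/C84N; E. coli), 1 nM, preincubated 30 min RT with compound (11-point fivefold series, top 100 μM) in HEPES pH 7.3 buffer; then 100 nM ULight-BCOR peptide plus 0.75 nM streptavidin-Eu added, 240 min RT. TR-FRET read, normalized to DMSO controls with/without BCL6.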

IC50 [nM] | SMILES
10 | C#CCNC(=O)COc1cc2cc(Nc3nc(N4CCC(C(=O)N(C)C)CC4)ncc3Cl)ccc2n(C)c1=O [Compound I-175]
106 | C[C@@H]1C[C@H](C)CN(c2ccc(Cl)c(Nc3ccc4c(c3)cc(OCC(=O)O)c(=O)n4C)n2)C1 [Compound I-176, 2-{[6-({3-chloro-6-[cis-3,5-dimethylpiperidin-1-yl]pyridin-2-yl}amino)-1-methyl-2-oxo-1,2-dihydroquinolin-3-yl]oxy}acetic acid]
87 | CNC(=O)COc1cc2cc(Nc3nc(N4C[C@H](C)C[C@H](C)C4)ccc3Cl)ccc2n(C)c1=O [Compound I-177, 2-{[6-({3-chloro-6-[cis-3,5-dimethylpiperidin-1-yl]pyridin-2-yl}amino)-1-methyl-2-oxo-1,2-dihydroquinolin-3-yl]oxy}-N-methylacetamide]
22 | CNC(=O)COc1cc2cc(Nc3cc(N4C[C@H](C)C[C@H](C)C4)ncc3Cl)ccc2n(C)c1=O [Compound I-178, 2-{[6-({5-chloro-2-[cis-3,5-dimethylpiperidin-1-yl]pyridin-4-yl}amino)-1-methyl-2-oxo-1,2-dihydroquinolin-3-yl]oxy}-N-methylacetamide]

— patent US11001570B2, “6-amino-quinolinone compounds and derivatives as BCL6 inhibitors” (Boehringer Ingelheim International GmbH, priority 2016, dated 2021)
